# Reference: publication PMC6911684 (Bioorganic & medicinal chemistry letters, 2019)
# What was measured:
# GGTase II [1] = target: T1, GGTase II (Homo sapiens, UniProt P53611+Q92696); settings: cited from earlier work
# T1 sequence (Q92696 1-567): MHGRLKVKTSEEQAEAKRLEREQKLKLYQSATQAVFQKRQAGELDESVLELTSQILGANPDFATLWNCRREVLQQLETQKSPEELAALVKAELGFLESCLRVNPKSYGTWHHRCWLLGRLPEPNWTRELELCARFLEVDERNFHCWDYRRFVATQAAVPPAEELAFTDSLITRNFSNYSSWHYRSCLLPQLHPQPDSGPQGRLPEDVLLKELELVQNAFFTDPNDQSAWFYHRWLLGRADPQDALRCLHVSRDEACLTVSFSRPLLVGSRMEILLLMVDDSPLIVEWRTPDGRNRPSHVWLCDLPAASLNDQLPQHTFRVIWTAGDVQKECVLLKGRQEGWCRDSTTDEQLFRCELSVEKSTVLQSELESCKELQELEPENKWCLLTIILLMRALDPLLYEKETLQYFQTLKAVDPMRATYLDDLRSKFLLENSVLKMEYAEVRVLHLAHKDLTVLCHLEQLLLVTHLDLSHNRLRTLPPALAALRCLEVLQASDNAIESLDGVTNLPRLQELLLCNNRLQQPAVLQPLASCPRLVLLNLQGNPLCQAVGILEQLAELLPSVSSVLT
# T1 sequence (P53611 1-331): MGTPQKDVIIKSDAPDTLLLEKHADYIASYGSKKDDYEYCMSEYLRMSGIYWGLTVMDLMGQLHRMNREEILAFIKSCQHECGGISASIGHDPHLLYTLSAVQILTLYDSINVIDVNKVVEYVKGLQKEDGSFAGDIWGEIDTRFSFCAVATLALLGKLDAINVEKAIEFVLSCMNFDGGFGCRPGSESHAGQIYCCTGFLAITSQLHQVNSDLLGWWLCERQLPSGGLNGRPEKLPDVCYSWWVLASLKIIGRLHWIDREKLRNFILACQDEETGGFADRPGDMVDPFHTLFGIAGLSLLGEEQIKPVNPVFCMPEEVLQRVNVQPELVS
# myeloma cells = settings: cited from earlier work
# RPMI-8226 cells [2] = assay: Cellular protein prenylation assays; format: cell-based, human
# GGTase I = GGTase I (Homo sapiens, UniProt P49354+P53609); assay: GGTase I in vitro enzyme assay; format: biochemical
# FTase = FTase (Homo sapiens, UniProt P49354+P49356); assay: FTase in vitro enzyme assay; format: biochemical
# GGTase II [3] = target: T1, GGTase II; assay: GGTase II in vitro enzyme assay; format: biochemical
# FDPS = target: T2, FDPS (Homo sapiens, UniProt P14324); assay: FDPS in vitro enzyme assay; format: biochemical; settings: ratio of GGDPS and FDPS IC50
# T2 sequence (P14324 1-419): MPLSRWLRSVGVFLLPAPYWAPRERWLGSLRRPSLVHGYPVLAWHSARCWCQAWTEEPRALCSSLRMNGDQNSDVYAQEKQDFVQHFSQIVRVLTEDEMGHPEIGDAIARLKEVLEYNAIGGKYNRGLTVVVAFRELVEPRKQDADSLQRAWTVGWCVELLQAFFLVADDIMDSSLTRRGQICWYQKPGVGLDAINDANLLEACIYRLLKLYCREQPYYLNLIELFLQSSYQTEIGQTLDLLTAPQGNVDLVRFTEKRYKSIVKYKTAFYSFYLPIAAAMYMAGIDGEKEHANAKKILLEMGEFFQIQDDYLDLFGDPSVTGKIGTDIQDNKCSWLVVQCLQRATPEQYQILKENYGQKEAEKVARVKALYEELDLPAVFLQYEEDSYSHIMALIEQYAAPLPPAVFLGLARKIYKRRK
# RPMI-8226 cells [4] = settings: HMG-CoA reductase inhibitor, 10 μM in Figure 2; cited from earlier work
# [5] = RPMI-8226 cells, 48 hours, immunoblot
smiles,measurement,setting,value
"O=C(O)C(O)(Cc1cnc2ccccn12)P(=O)(O)O (single isomer, unassigned; (+)) [(+)-enantiomer of 3-IPEHPC]",Activity relative to the (−)-enantiomer,GGTase II [1]; more active than (−)-enantiomer,~ 60 fold
O=C(O)C(O)(Cc1cnc2ccccn12)P(=O)(O)O (centres unmarked) [Compound 3-IPEHPC],Potency as GGTase II inhibitor relative to 3-PEHPC,GGTase II [1]; more potent than 3-PEHPC,25 fold
O=C(O)C(O)(Cc1cccnc1)P(=O)(O)O (centres unmarked) [Compound 3-PEHPC],Concentration required to yield cellular effects,myeloma cells,> 5 mM
O=C(O)C(Cn1cnc2ccccc21)P(=O)(O)O (centres unmarked) [Compound 13],Intracellular light chain levels,"RPMI-8226 cells [2]; RPMI-8226 cells, 48 hours, ELISA",increase
same,Membrane-bound Rab6 levels,"RPMI-8226 cells [2]; RPMI-8226 cells, 48 hours, detergent fraction, immunoblot",decrease
same,Disruption of H-Ras prenylation (representative farnesylated protein),RPMI-8226 cells [2]; [5],did not cause disruption
same,Disruption of Rap1a prenylation (representative substrate for GGTase I),RPMI-8226 cells [2]; [5],did not cause disruption
same,IC50,GGTase I,> 1000 µM
CC(Cn1cnc2ccccc21)(C(=O)O)P(=O)(O)O (centres unmarked) [Compound 14],IC50,FTase,> 1000 µM
same,IC50,GGTase I,> 1000 µM
O=C(O)C(Cn1cnc2cc(F)c(F)cc21)P(=O)(O)O (centres unmarked) [Compound 15],IC50,GGTase II [3],> 1000 µM
Cc1cc2ncn(CC(C(=O)O)P(=O)(O)O)c2cc1C (centres unmarked) [Compound 16],IC50,GGTase II [3],> 1000 µM
same,IC50,FTase,> 1000 µM
same,IC50,GGTase I,> 1000 µM
O=P(O)(O)C(Cn1cnc2ccccc21)P(=O)(O)O [Compound 17],Impairment of protein prenylation in cells,"RPMI-8226 cells [2]; RPMI-8226 cells, 48 hours",globally disrupts protein prenylation
same,Impairment of protein prenylation in combination with lovastatin,"RPMI-8226 cells [2]; co-incubation with lovastatin 0.5 μM, RPMI-8226 cells, 48 hours",enhanced the impairment of protein prenylation
same,IC50,GGTase II [3],> 1000 µM
same,IC50,GGTase I,> 1000 µM
CC(Cn1cnc2ccccc21)(P(=O)(O)O)P(=O)(O)O [Compound 18],Selectivity for FDPS relative to GGDPS,FDPS,>100
same,Impairment of protein prenylation in cells,"RPMI-8226 cells [2]; RPMI-8226 cells, 48 hours",no detectable impairment of protein prenylation
same,IC50,GGTase II [3],> 1000 µM
same,IC50,FTase,> 1000 µM
same,IC50,GGTase I,> 1000 µM
O=P(O)(O)C(Cn1cnc2cc(F)c(F)cc21)P(=O)(O)O [Compound 19],Concentration for cellular activity relative to parent compound 17,RPMI-8226 cells [2]; higher concentration than compound 17,20 fold
Cc1cc2ncn(CC(P(=O)(O)O)P(=O)(O)O)c2cc1C [Compound 20],Impairment of protein prenylation in cells,"RPMI-8226 cells [2]; RPMI-8226 cells, 48 hours",no detectable impairment of protein prenylation
same,IC50,FTase,> 1000 µM
same,IC50,GGTase I,> 1000 µM
"CC[C@H](C)C(=O)O[C@H]1C[C@@H](C)C=C2C=C[C@H](C)[C@H](CC[C@@H]3C[C@@H](O)CC(=O)O3)[C@H]21 [Lovastatin, reference compound]",Impairment of protein prenylation in cells,"RPMI-8226 cells [2]; lovastatin alone at 0.5 μM, RPMI-8226 cells, 48 hours",only minimally impairs protein prenylation
same,Disruption of prenylation (positive control),RPMI-8226 cells [4],disrupts all prenylation
